Tested on: 287954-098-R-J1 tumor spheroid viability
Experiment: Anticancer human tumor 287954-098-R-J1 patient-derived Ewing sarcoma cell line growth inhibition
Conditions: spheroids with HUVEC and MSC; for IC50: curve of first compound; for viability, T/C: stronger effect = lower value; active = viability on the fitted dose curve at most 10% of control; inactive = the rest
Method in brief: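 Single agents and combinations were tested on spheroids built from tumor cells plus HUVEC and hMSC, at half-log dilutions starting at or near clinical Cmax, else 10 microM; final DMSO 0.25% (v/v).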
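Note: spheroids exposed to compound for 7 days before viability readout.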
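Throughout, for viability, T/C: luminescent signal taken as surrogate of viable cell content; 100% = DMSO vehicle control viability and lower means growth inhibition.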

[2H]c1nc(C)nc([2H])c1-c1cc(NC[C@@H](C)c2cccc3c(C(=O)NC)ccnc23)ncn1 + CC[C@@]1(O)C(=O)OCc2c1cc1n(c2=O)Cc2cc3c(CN(C)C)c(O)ccc3nc2-1
active: viability, T/C (second compound 0.03 µM, first compound 10 µM) 4.42% | viability, T/C (second compound 0.0949 µM, first compound 0.0316 µM) 1.07% | viability, T/C (second compound 0.0949 µM, first compound 0.1 µM) 0.66% | viability, T/C (second compound 0.0949 µM, first compound 0.316 µM) 0.37% | viability, T/C (second compound 0.0949 µM, first compound 1 µM) 0.51% | viability, T/C (second compound 0.0949 µM, first compound 3.16 µM) 0.49% | viability, T/C (second compound 0.0949 µM, first compound 10 µM) 0.51% | viability, T/C (second compound 0.3 µM, first compound 0.0316 µM) 0.91% | viability, T/C (second compound 0.3 µM, first compound 0.1 µM) 0.5% | viability, T/C (second compound 0.3 µM, first compound 0.316 µM) 0.31% | viability, T/C (second compound 0.3 µM, first compound 1 µM) 0.64% | viability, T/C (second compound 0.3 µM, first compound 3.16 µM) 0.57% | viability, T/C (second compound 0.3 µM, first compound 10 µM) 0.57%
inactive: viability, T/C (second compound 0.003 µM, first compound 0.0316 µM) 101% | viability, T/C (second compound 0.003 µM, first compound 0.1 µM) 109% | viability, T/C (second compound 0.003 µM, first compound 0.316 µM) 111% | viability, T/C (second compound 0.003 µM, first compound 1 µM) 107% | viability, T/C (second compound 0.003 µM, first compound 3.16 µM) 96.2% | viability, T/C (second compound 0.003 µM, first compound 10 µM) 105% | viability, T/C (second compound 0.00949 µM, first compound 0.0316 µM) 104% | viability, T/C (second compound 0.00949 µM, first compound 0.1 µM) 108% | viability, T/C (second compound 0.00949 µM, first compound 0.316 µM) 99.1% | viability, T/C (second compound 0.00949 µM, first compound 1 µM) 106% | viability, T/C (second compound 0.00949 µM, first compound 3.16 µM) 110% | viability, T/C (second compound 0.00949 µM, first compound 10 µM) 109% | viability, T/C (second compound 0.03 µM, first compound 0.0316 µM) 32% | viability, T/C (second compound 0.03 µM, first compound 0.1 µM) 31.6% | viability, T/C (second compound 0.03 µM, first compound 0.316 µM) 47.8% | viability, T/C (second compound 0.03 µM, first compound 1 µM) 10.1% | viability, T/C (second compound 0.03 µM, first compound 3.16 µM) 15.7%
< 31.6 nM: IC50 (second compound 0.03 µM) | IC50 (second compound 0.0949 µM) | IC50 (second compound 0.3 µM)
> 10000 nM: IC50 (second compound 0.003 µM) | IC50 (second compound 0.00949 µM)

CC1COCCN1c1cc(-c2ccnn2C)c2ccnc(-c3ccn[nH]3)c2n1 (stereo not given) + Cn1nnc2c(C(N)=O)ncn2c1=O
< 31.6 nM: IC50 (second compound 100 µM)
inactive: viability, T/C (second compound 1 µM, first compound 0.0316 µM) 112% | viability, T/C (second compound 1 µM, first compound 0.1 µM) 75.2% | viability, T/C (second compound 1 µM, first compound 0.316 µM) 21% | viability, T/C (second compound 3.16 µM, first compound 0.0316 µM) 120% | viability, T/C (second compound 3.16 µM, first compound 0.1 µM) 91.1% | viability, T/C (second compound 3.16 µM, first compound 0.316 µM) 15.7% | viability, T/C (second compound 10 µM, first compound 0.0316 µM) 114% | viability, T/C (second compound 10 µM, first compound 0.1 µM) 47.9% | viability, T/C (second compound 31.6 µM, first compound 0.0316 µM) 110% | viability, T/C (second compound 31.6 µM, first compound 0.1 µM) 49.3% | viability, T/C (second compound 100 µM, first compound 0.0316 µM) 12%
171 nM: IC50 (second compound 1 µM)
96.3 nM: IC50 (second compound 10 µM)
187 nM: IC50 (second compound 3.16 µM)
active: viability, T/C (second compound 1 µM, first compound 1 µM) 5.68% | viability, T/C (second compound 1 µM, first compound 3.16 µM) 1.55% | viability, T/C (second compound 1 µM, first compound 10 µM) 2.68% | viability, T/C (second compound 3.16 µM, first compound 1 µM) 4.89% | viability, T/C (second compound 3.16 µM, first compound 3.16 µM) 1.74% | viability, T/C (second compound 3.16 µM, first compound 10 µM) 2.56% | viability, T/C (second compound 10 µM, first compound 0.316 µM) 9.18% | viability, T/C (second compound 10 µM, first compound 1 µM) 5.1% | viability, T/C (second compound 10 µM, first compound 3.16 µM) 1.63% | viability, T/C (second compound 10 µM, first compound 10 µM) 2.11% | viability, T/C (second compound 31.6 µM, first compound 0.316 µM) 8.98% | viability, T/C (second compound 31.6 µM, first compound 1 µM) 3.51% | viability, T/C (second compound 31.6 µM, first compound 3.16 µM) 1.69% | viability, T/C (second compound 31.6 µM, first compound 10 µM) 2.41% | viability, T/C (second compound 100 µM, first compound 0.1 µM) 4.47% | viability, T/C (second compound 100 µM, first compound 0.316 µM) 2.32% | viability, T/C (second compound 100 µM, first compound 1 µM) 1.6% | viability, T/C (second compound 100 µM, first compound 3.16 µM) 1.28% | viability, T/C (second compound 100 µM, first compound 10 µM) 2.24%
98.6 nM: IC50 (second compound 31.6 µM)

Source: PubChem BioAssay AID1845194 (Molecular Pharmacology Branch, DTP, NCI, 2023)
